From patent US10294234B2, “HIV inhibitor compounds” (priority 2017, dated 2019)
Like-named read-outs stand apart in the source and are kept apart here.

Assays:
[1] = Summary of the method: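 Depletion measured by LC/MS/MS at 2, 12, 25, 45 and 65 minutes after 1 uM compound was added to liver microsomes (0.5 mg/mL; dog, rat, human) with NADPH-regenerating cofactor, in duplicate. In vitro t1/2 converted to Clint.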
[2] = 3H Human Predicted Clearance Assay (tritiated analogs); type: in vitro ADME; parameters: unit not given here
Description: 3H Human Predicted Clearance Assay:
For certain compounds, tritiated analogs (H^3) were prepared to further determined their human predicted clearance with increased resolution. Those studies were performed as described above using the tritiated analogs. Data from those compounds is found in Table 2 below and reported in FIG. 1 (note ATV and DRV were not tritiated).

[3] = system: HIV-1 (IIIB) in MT-4 cells; experiment: MT-4 HIV assay; type: cell-based
Summary of the method: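 Antiviral activity was read by Cell Titer Glo after a 5-day, 37 °C culture of MT-4 cells pre-infected with a 1:250 dilution of HIV-1 (IIIB). Compounds were tested as threefold dilution series in complete RPMI. Controls were no drug, mock infection and 5 uM AZT.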

in vivo = settings: rat, in vivo
Description: Each dosing group consisted of 3 male naïve SD Rats. At dosing, the animals weighed between 0.27 to 0.32 kg. The animals were fasted overnight prior to dose administration. The test article was administered by intravenous infusion over 30 min. The rate of infusion was adjusted according to the body weight of each animal to deliver a dose of 0.5 or 1.0 mg/kg. For the oral dosing group, the test article was administered to animals by oral gavage administration. Serial venous blood samples (approximately 0.30 mL each) were taken at predose and 0.25, 0.48, 0.58, 0.75, 1.5, 3, 6, 8, 12 and 24 hours post dose for the IV dosing group animals. Blood samples were taken at predose, 0.25, 0.50, 1, 2, 4, 6, 8, 12 and 24 hours post dose for the oral group animals. The blood samples were collected into Vacutainer™ tubes containing EDTA-K2 as the anti-coagulant and were immediately placed on wet ice pending centrifugation for plasma. An LC/MS/MS method was used to measure the concentration of test compound in plasma. Non-compartmental pharmacokinetic analysis was performed on the plasma concentration-time data.

[4] = Human immunodeficiency virus 1, MT4, 120 h, HIV-1 (IIIB), MT-4 cells, 5 days, Cell Titer Glo, read-out: EC50
[5] = human liver microsomes 0.5 mg/mL, 1 uM compound, NADPH
[6] = tritiated analogs, human liver microsomes
[7] = Human immunodeficiency virus 1, MT4, 120 h
[8] = rat liver microsomes 0.5 mg/mL, 1 uM compound, NADPH

| Molecule | Human Pred Cl. ([1]; human, microsomes) [L/H/kg] | Rat. Pred. Cl. ([1]; rat, microsomes) [L/H/kg] | 3H Human Predicted Cl. ([2]; human, 1 uM) | EC50 [3, 4] [nM] | Human Pred Cl. [1, 5] [L/H/kg] | 3H Human Predicted Cl. [2, 6] | Rat. Pred. Cl. [1, 8] [L/H/kg] | further results |
| --- | --- | --- | --- | --- | --- | --- | --- | --- |
| COC(=O)N[C@H](C(=O)NN(Cc1c(F)cc(-c2ccn(C(F)F)n2)cc1F)C[C@H](O)[C@H](Cc1ccc(C#Cc2cnc(N3CC4CCC(C3)N4C3COC3)nc2)cc1)NC(=O)[C@@H](NC(=O)OC)C(C)(C)C(F)(F)F)C(C)(C)C [Example 23, Methyl ((5S,8S,9S,14S)-11-(4-(1-(difluoromethyl)-1H-pyrazol-3-yl)-2,6-difluorobenzyl)-9-hydroxy-15,15-dimethyl-8-(4-((2-(8-(oxetan-3-yl)-3,8-diazabicyclo[3.2.1]octan-3-yl)pyrimidin-5-yl)ethynyl)benzyl)-3,6,13-trioxo-5-(1,1,1-trifluoro-2-methylpropan-2-yl)-2-oxa-4,7,11,12-tetraazahexadecan-14-yl)carbamate] | <0.11 | 0.22 | 0.07 | 4.82 | – | – | – | Dog. Pred. Cl. ([1]; dog, microsomes): 0.21 L/H/kg |
| COC(=O)N[C@H](C(=O)N[C@@H](Cc1ccc(C#Cc2cnc(N3CC4CCC(C3)N4C3COC3)nc2)cc1)[C@@H](O)CN(Cc1c(F)cc(-c2ccn(CC(F)F)n2)cc1F)NC(=O)[C@@H](NC(=O)OC)C(C)(C)C(F)(F)F)C(C)(C)C(F)(F)F [Example 36, Methyl ((5S,8S,9S,14S)-11-(4-(1-(2,2-difluoroethyl)-1H-pyrazol-3-yl)-2,6-difluorobenzyl)-16,16,16-trifluoro-9-hydroxy-15,15-dimethyl-8-(4-((2-(8-(oxetan-3-yl)-3,8-diazabicyclo[3.2.1]octan-3-yl)pyrimidin-5-yl)ethynyl)benzyl)-3,6,13-trioxo-5-(1,1,1-trifluoro-2-methylpropan-2-yl)-2-oxa-4,7,11,12-tetraazahexadecan-14-yl)carbamate] | <0.11 | 0.27 | 0.1 | 3.68 | – | – | – | Vd (in vivo; male, SD, iv): 5.99 L/kg; RAT PO F (in vivo; male, SD, po, 2.5 mg/kg): 16.4%; RAT IV CL (in vivo; iv): 5.33 mL/min/kg; RAT IV T1/2 (in vivo; iv): 15.7 h |
| COC(=O)N[C@H](C(=O)N[C@@H](Cc1ccc(C#Cc2ccc(N3CCN4CCOC[C@H]4C3)nc2)cc1)[C@@H](O)CN(Cc1c(F)cc(-c2ccn(C(F)F)n2)cc1F)NC(=O)[C@@H](NC(=O)OC)C(C)(C)C(F)(F)F)C(C)(C)C(F)(F)F [Example 51, methyl ((5S,8S,9S,14S)-11-(4-(1-(difluoromethyl)-1H-pyrazol-3-yl)-2,6-difluorobenzyl)-16,16,16-trifluoro-8-(4-((6-((R)-hexahydropyrazino[2,1-c][1,4]oxazin-8(1H)-yl)pyridin-3-yl)ethynyl)benzyl)-9-hydroxy-15,15-dimethyl-3,6,13-trioxo-5-(1,1,1-trifluoro-2-methylpropan-2-yl)-2-oxa-4,7,11,12-tetraazahexadecan-14-yl)carbamate] | – | – | – | – | <0.11 | 0.11 | – | EC50 [3, 7]: 2.8 nM |
| COC(=O)N[C@H](C(=O)N[C@@H](Cc1ccc(C#Cc2ccc(N3CC4CCC(C3)N4C3COC3)nc2)cc1)[C@@H](O)CN(Cc1c(F)cc(-c2nnc(C3CC3)s2)cc1F)NC(=O)[C@@H](NC(=O)OC)C(C)(C)C(F)(F)F)C(C)(C)C(F)(F)F [Example 75, Methyl ((5S,8S,9S,14S)-11-(4-(5-cyclopropyl-1,3,4-thiadiazol-2-yl)-2,6-difluorobenzyl)-16,16,16-trifluoro-9-hydroxy-15,15-dimethyl-8-(4-((6-(8-(oxetan-3-yl)-3,8-diazabicyclo[3.2.1]octan-3-yl)pyridin-3-yl)ethynyl)benzyl)-3,6,13-trioxo-5-(1,1,1-trifluoro-2-methylpropan-2-yl)-2-oxa-4,7,11,12-tetraazahexadecan-14-yl)carbamate] | <0.11 | 0.21 | 0.11 | 3.41 | – | – | – | – |
| COC(=O)N[C@H](C(=O)N[C@@H](Cc1ccc(C#Cc2cnc(N3CCN(C4COC4)CC3)nc2)cc1)[C@@H](O)CN(Cc1c(F)cc(-c2ncccn2)cc1F)NC(=O)[C@@H](NC(=O)OC)C(C)(C)C(F)(F)F)C(C)(C)C(F)(F)F [Example 88, Methyl ((5S,8S,9S,14S)-11-(2,6-difluoro-4-(pyrimidin-2-yl)benzyl)-16,16,16-trifluoro-9-hydroxy-15,15-dimethyl-8-(4-((2-(4-(oxetan-3-yl)piperazin-1-yl)pyrimidin-5-yl)ethynyl)benzyl)-3,6,13-trioxo-5-(1,1,1-trifluoro-2-methylpropan-2-yl)-2-oxa-4,7,11,12-tetraazahexadecan-14-yl)carbamate] | – | – | – | 4.57 | <0.11 | 0.08 | <0.18 | Dog. Pred. Cl. ([1]; dog liver microsomes 0.5 mg/mL, 1 uM compound, NADPH): 1.63 L/H/kg |
| COC(=O)N[C@H](C(=O)N[C@@H](Cc1ccc(C#Cc2ccc(N3C[C@H]4C[C@@H]3CN4C3COC3)nc2)cc1)[C@@H](O)CN(Cc1c(F)cc(-c2ccn(C(F)F)n2)cc1F)NC(=O)[C@@H](NC(=O)OC)C(C)(C)C(F)(F)F)C(C)(C)C(F)(F)F [Example 173, Methyl ((5S,8S,9S,14S)-11-(4-(1-(difluoromethyl)-1H-pyrazol-3-yl)-2,6-difluorobenzyl)-16,16,16-trifluoro-9-hydroxy-15,15-dimethyl-8-(4-((6-((1R,4R)-5-(oxetan-3-yl)-2,5-diazabicyclo[2.2.1]heptan-2-yl)pyridin-3-yl)ethynyl)benzyl)-3,6,13-trioxo-5-(1,1,1-trifluoro-2-methylpropan-2-yl)-2-oxa-4,7,11,12-tetraazahexadecan-14-yl)carbamate] | – | – | – | – | <0.11 | 0.14 | 1.2 | EC50 [3, 7]: 2.55 nM |
| COC(=O)N[C@H](C(=O)N[C@@H](Cc1ccc(C#Cc2ccc(N3CC4CC(C3)N4C3COC3)nc2)cc1)[C@@H](O)CN(Cc1c(F)cc(-c2ccn(C(F)F)n2)cc1F)NC(=O)[C@@H](NC(=O)OC)C(C)(C)C(F)(F)F)C(C)(C)C(F)(F)F [Example 176, Methyl ((5S,8S,9S,14S)-11-(4-(1-(difluoromethyl)-1H-pyrazol-3-yl)-2,6-difluorobenzyl)-16,16,16-trifluoro-9-hydroxy-15,15-dimethyl-8-(4-((6-(6-(oxetan-3-yl)-3,6-diazabicyclo[3.1.1]heptan-3-yl)pyridin-3-yl)ethynyl)benzyl)-3,6,13-trioxo-5-(1,1,1-trifluoro-2-methylpropan-2-yl)-2-oxa-4,7,11,12-tetraazahexadecan-14-yl)carbamate] | <0.11 | 0.75 | 0.09 | 3.36 | – | – | – | – |
| COC(=O)N[C@H](C(=O)N[C@@H](Cc1ccc(-c2ccc(N3CC4CCC(C3)N4C3COC3)nc2)cc1)[C@@H](O)CN(Cc1c(F)cc(-c2ccn(C(F)F)n2)cc1F)NC(=O)[C@@H](NC(=O)OC)C(C)(C)C(F)(F)F)C(C)(C)C(F)(F)F [Example 208, Methyl ((5S,8S,9S,14S)-11-(4-(1-(difluoromethyl)-1H-pyrazol-3-yl)-2,6-difluorobenzyl)-16,16,16-trifluoro-9-hydroxy-15,15-dimethyl-8-(4-(6-(8-(oxetan-3-yl)-3,8-diazabicyclo[3.2.1]octan-3-yl)pyridin-3-yl)benzyl)-3,6,13-trioxo-5-(1,1,1-trifluoro-2-methylpropan-2-yl)-2-oxa-4,7,11,12-tetraazahexadecan-14-yl)carbamate] | 0.16 | 0.74 | 0.11 | 2.51 | – | – | – | – |
| Methyl ((5S,8S,9S,14S)-11-(4-(1-(difluoromethyl)-1H-pyrazol-3-yl)-2,6-difluorobenzyl)-16,16,16-trifluoro-9-hydroxy-15,15-dimethyl-8-(4-((6-(4-(oxetan-3-yl)piperazin-1-yl)pyridin-3-yl)ethynyl)benzyl)-3,6,3-trioxo-5-(1,1,1-trifluoro-2-methylpropan-2-yl)-2-oxa-4,7,11,12-tetraazahexadecan-14-yl)carbamate [Example 112] | – | – | – | – | <0.11 | 0.11 | 0.32 | EC50 ([3]; HIV-1 (IIIB), MT-4 cells, 5 days, Cell Titer Glo, read-out: EC50): 4.45 nM |
